Measurements reported in patent US20230263822A1, “MODULATION OF FACTOR 11 EXPRESSION” (Ionis Pharmaceuticals, Inc., priority 2008, published 2023).
Strand notation (5' to 3'): a small letter for the sugar, then the base; units joined by * are phosphorothioate-linked, units joined directly phosphodiester-linked; [ ] holds rarer units or linkages, { } end groups; capitals alone tell only the bases. e = 2'-O-(2-methoxyethyl) (MOE); [5mC] = 5-methylcytosine; d = 2'-deoxy (DNA)

Experiments:
human Factor 11 mRNA = assay: Antisense inhibition of human Factor 11 in HepG2 cells, lipofectin, 75 nM (Example 1); assay type: cell-based; conditions: 75 nM antisense oligonucleotide, ~24 h, relative to untreated control cells, gapmers targeted to SEQ ID NO: 1
How it was run: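 HepG2 cells transfected via lipofectin with 75 nM antisense oligonucleotide (5-10-5 MOE gapmers, 20-mers, phosphorothioate, 5-methylcytidines), treated ~24 h. Factor 11 mRNA quantified by real-time PCR, normalised to RIBOGREEN total RNA; percent inhibition versus untreated cells.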

[1] = Tolerability in Sprague-Dawley rats: liver function (Example 35); conditions: plasma, 50 mg/kg s.c. twice per week for 6 weeks
[2] = Tolerability in CD1 mice: liver function, ALT, AST, bilirubin, albumin (Example 33); conditions: plasma, 50 mg/kg s.c. twice a week
fibrinogen = assay: Fibrinogen assay (Example 45); assay type: in vivo, cynomolgus monkeys; conditions: plasma, escalating dose regimen
Procedure: Groups, each consisting of two male and three female monkeys, were injected subcutaneously with ISIS 416838, ISIS 416850, ISIS 416858, ISIS 416864, or ISIS 417002 in escalating doses. Antisense oligonucleotide was administered to the monkeys at 5 mg/kg three times per a week for week 1; 5 mg/kg twice per week for weeks 2 and 3; 10 mg/kg three times per week for week 4; 10 mg/kg twice per week for weeks 5 and 6; 25 mg/kg three times per week for week 7; and 25 mg/kg twice per week for weeks 8, 9, 10, 11, and 12. One control group, consisting of two male and three female monkeys, was injected subcutaneously with PBS according to the same dosing regimen. An additional experimental group, consisting of two male and three female monkeys, was injected subcutaneously with ISIS 416850 in a chronic, lower dose regimen. Antisense oligonucleotide was administered to the monkeys at 5 mg/kg three times per week for week 1; 5 mg/kg twice per week for week 2 and 3; 10 mg/kg three times per week for week 4; and 10 mg/kg twice per week for weeks 5 to 12. Body weights were measured weekly. Blood samples were collected 14 days and 5 days before the start of treatment and subsequently once per week for Factor 11 protein activity analysis in plasma, fibrinogen measurement, PT and aPTT measurements, bleeding times, and measurement of various hematologic factors. On day 85, the monkeys were euthanized by exsanguination while under deep anesthesia, and organs harvested for further analysis.
Nine parts of fresh monkey plasma was collected into one part of trisodium citrate. The samples were evaluated of fibrinogen content using an ACL 9000 coagulation instrument (Instrumentation Laboratory, Italy). The ISIS oligonucleotide, ISIS 416850, given with the chronic dose regimen is distinguished from the other oligonucleotides with an asterisk (*).

[3] = Tolerability in Sprague-Dawley rats: liver function (Example 44); assay type: in vivo; parameters: Albumin: unit not given here; conditions: 50 mg/kg s.c. twice per week for 6 weeks, plasma

In the case of “412206 (antisense e[5mC]*e[5mC]*eG*eT*eG*d[5mC]*dA*dT*d[5mC]*dT*dT*dT*d[5mC]*dT*dT*eG*eG*e[5mC]*eA*eT) [compound 412206]”, the “% inhibition” value (human Factor 11 mRNA) was 87%.

For “412223 (antisense ACAGTTTCTGGCAGGCCTCG; 5-10-5 MOE gapmer, further chemistry not given here) [compound 412223]”, the “% inhibition” value (human Factor 11 mRNA) was 84%.

For “412224 (antisense GCATTGGTGCACAGTTTCTG; 5-10-5 MOE gapmer, further chemistry not given here) [compound 412224]”, the “% inhibition” value (human Factor 11 mRNA) was 87%.

In the case of “412225 (antisense GCAGCGGACGGCATTGGTGC; 5-10-5 MOE gapmer, further chemistry not given here) [compound 412225]”, the “% inhibition” value (human Factor 11 mRNA) was 86%.

In the case of “413482 (antisense GGACGGCATTGGTGCACAGT; 5-10-5 MOE gapmer, further chemistry not given here) [compound 413482]”, the “% inhibition” value (human Factor 11 mRNA) was 85%.

Work on “ISIS 416838: MOE gapmer, nucleobases 1018 to 1042 of SEQ ID NO: 1 (Table 6) (antisense GCAACCGGGATGATGAGTGC; MOE gapmer, wing and gap sizes not given here)” yielded an ALT [1] of 5 IU/L, an AST [1] of 2 IU/L and an Albumin [1] of 2. The Bilirubin [1] was 4 mg/dL, the ALT ([2]; 2 weeks) was 61 IU/L and the AST ([2]; 2 weeks) was 106 IU/L. For the same substance, the Albumin ([2]; 2 weeks) was 3.5, the Bilirubin ([2]; 2 weeks) was 0.57 mg/dL and the ALT ([2]; 4 weeks) was 41 IU/L. It also gave an AST ([2]; 4 weeks) of 73 IU/L, an Albumin ([2]; 4 weeks) of 3.8 and a Bilirubin ([2]; 4 weeks) of 0.24 mg/dL. The ALT ([2]; 6 weeks) was 141 IU/L, the AST ([2]; 6 weeks) was 107 IU/L and the Albumin ([2]; 6 weeks) was 3.6. It also gave a Bilirubin ([2]; 6 weeks) of 0.20 mg/dL, a fibrinogen levels (fibrinogen; day 8) of 209 mg/dL and a fibrinogen levels (fibrinogen; day 15) of 198 mg/dL. It also gave a fibrinogen levels (fibrinogen; day 22) of 183 mg/dL, a fibrinogen levels (fibrinogen; day 29) of 184 mg/dL and a fibrinogen levels (fibrinogen; day 36) of 182 mg/dL. The fibrinogen levels (fibrinogen; day 43) was 186 mg/dL, the fibrinogen levels (fibrinogen; day 50) was 216 mg/dL and the fibrinogen levels (fibrinogen; day 57) was 190 mg/dL. For the same substance, the fibrinogen levels (fibrinogen; day 64) was 190 mg/dL, the fibrinogen levels (fibrinogen; day 71) was 199 mg/dL and the fibrinogen levels (fibrinogen; day 78) was 189 mg/dL. The fibrinogen levels (fibrinogen; day 85) was 196 mg/dL, the fibrinogen levels (fibrinogen; day −5) was 205 mg/dL and the fibrinogen levels (fibrinogen; day −14) was 251 mg/dL.

“ISIS 416858: MOE gapmer, nucleobases 1275 to 1318 of SEQ ID NO: 1 (Table 8) (antisense ACGGCATTGGTGCACAGTTT; MOE gapmer, wing and gap sizes not given here)” showed an ALT [1] of 13 IU/L, an AST [1] of 4 IU/L and an Albumin [1] of 2. It also gave a Bilirubin [1] of 4 mg/dL, an ALT ([2]; 2 weeks) of 190 IU/L and an AST ([2]; 2 weeks) of 236 IU/L. For the same substance, the Albumin ([2]; 2 weeks) was 3.4, the Bilirubin ([2]; 2 weeks) was 0.57 mg/dL and the ALT ([2]; 4 weeks) was 57 IU/L. It also gave an AST ([2]; 4 weeks) of 108 IU/L, an Albumin ([2]; 4 weeks) of 3.5 and a Bilirubin ([2]; 4 weeks) of 0.24 mg/dL. The ALT ([2]; 6 weeks) was 216 IU/L, the AST ([2]; 6 weeks) was 178 IU/L and the Albumin ([2]; 6 weeks) was 2.8. It also gave a Bilirubin ([2]; 6 weeks) of 0.16 mg/dL, a fibrinogen levels (fibrinogen; day 8) of 246 mg/dL and a fibrinogen levels (fibrinogen; day 15) of 219 mg/dL. The fibrinogen levels (fibrinogen; day 22) was 222 mg/dL, the fibrinogen levels (fibrinogen; day 29) was 220 mg/dL and the fibrinogen levels (fibrinogen; day 36) was 225 mg/dL. It also gave a fibrinogen levels (fibrinogen; day 43) of 229 mg/dL, a fibrinogen levels (fibrinogen; day 50) of 259 mg/dL and a fibrinogen levels (fibrinogen; day 57) of 225 mg/dL. It also gave a fibrinogen levels (fibrinogen; day 64) of 236 mg/dL, a fibrinogen levels (fibrinogen; day 71) of 239 mg/dL and a fibrinogen levels (fibrinogen; day 78) of 234 mg/dL. It also gave a fibrinogen levels (fibrinogen; day 85) of 243 mg/dL, a fibrinogen levels (fibrinogen; day −5) of 246 mg/dL and a fibrinogen levels (fibrinogen; day −14) of 277 mg/dL.

With “ISIS 416864: MOE gapmer, nucleobases 1275 to 1318 of SEQ ID NO: 1 (Table 8) (antisense GGCAGCGGACGGCATTGGTG; MOE gapmer, wing and gap sizes not given here)” the ALT [1] was 471 IU/L, the AST [1] was 68 IU/L and the Albumin [1] was 4. The Bilirubin [1] was 3 mg/dL, the ALT ([2]; 2 weeks) was 44 IU/L and the AST ([2]; 2 weeks) was 58 IU/L. It also gave an Albumin ([2]; 2 weeks) of 3.5, a Bilirubin ([2]; 2 weeks) of 0.40 mg/dL and an ALT ([2]; 4 weeks) of 33 IU/L. For the same substance, the AST ([2]; 4 weeks) was 46 IU/L, the Albumin ([2]; 4 weeks) was 3.6 and the Bilirubin ([2]; 4 weeks) was 0.26 mg/dL. For the same substance, the ALT ([2]; 6 weeks) was 92 IU/L, the AST ([2]; 6 weeks) was 101 IU/L and the Albumin ([2]; 6 weeks) was 3.5. For the same substance, the Bilirubin ([2]; 6 weeks) was 0.22 mg/dL, the fibrinogen levels (fibrinogen; day 8) was 227 mg/dL and the fibrinogen levels (fibrinogen; day 15) was 210 mg/dL. The fibrinogen levels (fibrinogen; day 22) was 184 mg/dL, the fibrinogen levels (fibrinogen; day 29) was 205 mg/dL and the fibrinogen levels (fibrinogen; day 36) was 202 mg/dL. For the same substance, the fibrinogen levels (fibrinogen; day 43) was 198 mg/dL, the fibrinogen levels (fibrinogen; day 50) was 233 mg/dL and the fibrinogen levels (fibrinogen; day 57) was 200 mg/dL. The fibrinogen levels (fibrinogen; day 64) was 218 mg/dL, the fibrinogen levels (fibrinogen; day 71) was 245 mg/dL and the fibrinogen levels (fibrinogen; day 78) was 250 mg/dL. It also gave a fibrinogen levels (fibrinogen; day 85) of 240 mg/dL, a fibrinogen levels (fibrinogen; day −5) of 243 mg/dL and a fibrinogen levels (fibrinogen; day −14) of 300 mg/dL.

“ISIS 417002: MOE gapmer, nucleobases 1275 to 1318 of SEQ ID NO: 1 (Table 8) (antisense GGTGCACAGTTTCTGGCAGG; MOE gapmer, wing and gap sizes not given here)” showed an ALT [1] of 44 IU/L, an AST [1] of 11 IU/L and an Albumin [1] of 3. For the same substance, the Bilirubin [1] was 12 mg/dL, the ALT ([2]; 2 weeks) was 71 IU/L and the AST ([2]; 2 weeks) was 96 IU/L. It also gave an Albumin ([2]; 2 weeks) of 3.2, a Bilirubin ([2]; 2 weeks) of 0.50 mg/dL and an ALT ([2]; 4 weeks) of 138 IU/L. For the same substance, the AST ([2]; 4 weeks) was 87 IU/L, the Albumin ([2]; 4 weeks) was 3.4 and the Bilirubin ([2]; 4 weeks) was 0.25 mg/dL. The ALT ([2]; 6 weeks) was 2579 IU/L, the AST ([2]; 6 weeks) was 1166 IU/L and the Albumin ([2]; 6 weeks) was 3.4. For the same substance, the Bilirubin ([2]; 6 weeks) was 0.29 mg/dL, the fibrinogen levels (fibrinogen; day 8) was 221 mg/dL and the fibrinogen levels (fibrinogen; day 15) was 195 mg/dL. For the same substance, the fibrinogen levels (fibrinogen; day 22) was 199 mg/dL, the fibrinogen levels (fibrinogen; day 29) was 199 mg/dL and the fibrinogen levels (fibrinogen; day 36) was 191 mg/dL. For the same substance, the fibrinogen levels (fibrinogen; day 43) was 187 mg/dL, the fibrinogen levels (fibrinogen; day 50) was 236 mg/dL and the fibrinogen levels (fibrinogen; day 57) was 201 mg/dL. It also gave a fibrinogen levels (fibrinogen; day 64) of 236 mg/dL, a fibrinogen levels (fibrinogen; day 71) of 228 mg/dL and a fibrinogen levels (fibrinogen; day 78) of 221 mg/dL. It also gave a fibrinogen levels (fibrinogen; day 85) of 224 mg/dL, a fibrinogen levels (fibrinogen; day −5) of 222 mg/dL and a fibrinogen levels (fibrinogen; day −14) of 291 mg/dL.

Work on “ISIS 449707: 3-8-3, 4-8-4, 2-10-2, 3-10-3 or 4-10-4 MOE microwalk gapmer (Table 46) (antisense e[5mC]*eA*e[5mC]*eA*dG*dT*dT*dT*d[5mC]*dT*dG*dG*e[5mC]*eA*eG*eG)” yielded an ALT [3] of 61 IU/L, an AST [3] of 199 IU/L and an Albumin [3] of 3.1. For the same substance, the Bilirubin [3] was 0.2 mg/dL.

Substance “ISIS 449708: 3-8-3, 4-8-4, 2-10-2, 3-10-3 or 4-10-4 MOE microwalk gapmer (Table 46) (antisense eA*e[5mC]*eA*dG*dT*dT*dT*d[5mC]*dT*dG*dG*e[5mC]*eA*eG)” has an ALT [3] of 25 IU/L, an AST [3] of 90 IU/L and an Albumin [3] of 3.2. The Bilirubin [3] was 0.1 mg/dL.

For “ISIS 449709: 3-8-3, 4-8-4, 2-10-2, 3-10-3 or 4-10-4 MOE microwalk gapmer (Table 46) (antisense eG*e[5mC]*eA*e[5mC]*dA*dG*dT*dT*dT*d[5mC]*dT*dG*dG*d[5mC]*eA*eG*eG*e[5mC])”, the ALT [3] was 63 IU/L, the AST [3] was 126 IU/L and the Albumin [3] was 3.1. For the same substance, the Bilirubin [3] was 0.2 mg/dL.

For “ISIS 449710: 3-8-3, 4-8-4, 2-10-2, 3-10-3 or 4-10-4 MOE microwalk gapmer (Table 46) (antisense e[5mC]*eA*e[5mC]*dA*dG*dT*dT*dT*d[5mC]*dT*dG*dG*d[5mC]*eA*eG*eG)”, the ALT [3] was 36 IU/L, the AST [3] was 211 IU/L and the Albumin [3] was 2.9. It also gave a Bilirubin [3] of 0.1 mg/dL.

For “ISIS 449711: 3-8-3, 4-8-4, 2-10-2, 3-10-3 or 4-10-4 MOE microwalk gapmer (Table 46) (antisense eA*e[5mC]*dA*dG*dT*dT*dT*d[5mC]*dT*dG*dG*d[5mC]*eA*eG)”, the ALT [3] was 32 IU/L, the AST [3] was 163 IU/L and the Albumin [3] was 2.9. The Bilirubin [3] was 0.1 mg/dL.
